Results reported in ChEMBL document CHEMBL3885881, “DrugMatrix”.

Species on record: Rattus norvegicus
Test: DrugMatrix - Regimen: Daily Repeat
Type: toxicity, organism-based, Sprague-Dawley
Parameters: regimen Daily Repeat, gender Male, age 6-8 weeks
Conditions: in vivo, po, route oral GAVAGE, vehicle .5 % CMC; for ABSOLUTE BASOPHIL / ABSOLUTE EOSINOPHIL / ABSOLUTE LYMPHOCYTE / ABSOLUTE MONOCYTE / ABSOLUTE SEGMENTED NEUTROPHIL / BASOPHIL / EOSINOPHIL / ERYTHROCYTE COUNT / HEMATOCRIT / HEMOGLOBIN / LEUKOCYTE COUNT / LYMPHOCYTE / MEAN CORPUSCULAR HEMOGLOBIN / MEAN CORPUSCULAR HEMOGLOBIN CONCENTRATION / MONOCYTE / NEUTROPHIL / NUCLEATED RED BLOOD CELLS / PLATELET COUNT: tissue Blood; for ALANINE AMINOTRANSFERASE / ALBUMIN / ALKALINE PHOSPHATASE / ASPARTATE AMINOTRANSFERASE / BLOOD UREA NITROGEN / CARBON DIOXIDE / CHLORIDE / CHOLESTEROL / CREATINE PHOSPHOKINASE / CREATININE / GLUCOSE / LACTATE DEHYDROGENASE / LIPASE / PHOSPHORUS / POTASSIUM / SODIUM / TOTAL BILIRUBIN / TOTAL PROTEIN / URIC ACID: tissue Plasma
[1] = 0 mg/kg, 72 h, dose level Control, time 3 day
[2] = 0 mg/kg, 120 h, dose level Control, time 5 day
[3] = 3 mg/kg, 72 h, dose level Low, time 3 day

COc1cc2nc(N3CCN(C(=O)c4ccco4)CC3)nc(N)c2cc1OC [PRAZOSIN]
ABSOLUTE BASOPHIL [1]: 0 CELLS/uL | ABSOLUTE EOSINOPHIL [1]: 171.33 CELLS/uL | ABSOLUTE LYMPHOCYTE [1]: 13776.5 CELLS/uL | ABSOLUTE MONOCYTE [1]: 180.83 CELLS/uL | ABSOLUTE SEGMENTED NEUTROPHIL [1]: 1121.33 CELLS/uL | BASOPHIL [1]: 0% | EOSINOPHIL [1]: 1% | ERYTHROCYTE COUNT [1]: 5.56 x10E6/uL | HEMATOCRIT [1]: 34.75% | HEMOGLOBIN [1]: 13.68 G/DL | LEUKOCYTE COUNT [1]: 15.25 x10E3/uL | LYMPHOCYTE [1]: 90.17% | MEAN CORPUSCULAR HEMOGLOBIN [1]: 24.6 pg | MEAN CORPUSCULAR HEMOGLOBIN CONCENTRATION [1]: 39.4 G/DL | MONOCYTE [1]: 1.17% | NEUTROPHIL [1]: 7.67% | NUCLEATED RED BLOOD CELLS [1]: 0 /100WBC | PLATELET COUNT [1]: 1342 x10E3/uL | ALANINE AMINOTRANSFERASE [1]: 49.67 u/L | ALBUMIN [1]: 4.15 G/DL | ALKALINE PHOSPHATASE [1]: 346.83 u/L | ASPARTATE AMINOTRANSFERASE [1]: 108.17 u/L | BLOOD UREA NITROGEN [1]: 17.33 mg/dL | CARBON DIOXIDE [1]: 25 mmol/L | CHLORIDE [1]: 100.83 MEQ/L | CHOLESTEROL [1]: 66.83 mg/dL | CREATINE PHOSPHOKINASE [1]: 788 u/L | CREATININE [1]: 0.18 mg/dL | GLUCOSE [1]: 151.67 mg/dL | LACTATE DEHYDROGENASE [1]: 982.5 u/L | LIPASE [1]: 10.33 u/L | PHOSPHORUS [1]: 11.23 mg/dL | POTASSIUM [1]: 6.37 MEQ/L | SODIUM [1]: 141.02 MEQ/L | TOTAL BILIRUBIN [1]: 0.18 mg/dL | TOTAL PROTEIN [1]: 5.9 G/DL | URIC ACID [1]: 1.8 mg/dL | ABSOLUTE BASOPHIL [2]: 0 CELLS/uL | ABSOLUTE EOSINOPHIL [2]: 69 CELLS/uL | ABSOLUTE LYMPHOCYTE [2]: 13632.83 CELLS/uL | ABSOLUTE MONOCYTE [2]: 139.83 CELLS/uL | ABSOLUTE SEGMENTED NEUTROPHIL [2]: 1225 CELLS/uL | BASOPHIL [2]: 0% | EOSINOPHIL [2]: 0.33% | ERYTHROCYTE COUNT [2]: 5.52 x10E6/uL | HEMATOCRIT [2]: 33.98% | HEMOGLOBIN [2]: 13.22 G/DL | LEUKOCYTE COUNT [2]: 15.07 x10E3/uL | LYMPHOCYTE [2]: 90.83% | MEAN CORPUSCULAR HEMOGLOBIN [2]: 23.95 pg | MEAN CORPUSCULAR HEMOGLOBIN CONCENTRATION [2]: 38.9 G/DL | MONOCYTE [2]: 0.83% | NEUTROPHIL [2]: 8% | NUCLEATED RED BLOOD CELLS [2]: 0 /100WBC | PLATELET COUNT [2]: 1196 x10E3/uL | ALANINE AMINOTRANSFERASE [2]: 49.17 u/L | ALBUMIN [2]: 4.2 G/DL | ALKALINE PHOSPHATASE [2]: 352.33 u/L | ASPARTATE AMINOTRANSFERASE [2]: 89.67 u/L | BLOOD UREA NITROGEN [2]: 18 mg/dL | CARBON DIOXIDE [2]: 27.67 mmol/L | CHLORIDE [2]: 101 MEQ/L | CHOLESTEROL [2]: 72.83 mg/dL | CREATINE PHOSPHOKINASE [2]: 417.5 u/L | CREATININE [2]: 0.18 mg/dL | GLUCOSE [2]: 150.5 mg/dL | LACTATE DEHYDROGENASE [2]: 517.33 u/L | LIPASE [2]: 9 u/L | PHOSPHORUS [2]: 11.87 mg/dL | POTASSIUM [2]: 6.57 MEQ/L | SODIUM [2]: 143.62 MEQ/L | TOTAL BILIRUBIN [2]: 0.2 mg/dL | TOTAL PROTEIN [2]: 6.08 G/DL | URIC ACID [2]: 1.45 mg/dL | ABSOLUTE BASOPHIL [3]: 0 CELLS/uL | ABSOLUTE EOSINOPHIL [3]: 118.67 CELLS/uL | ABSOLUTE LYMPHOCYTE [3]: 13015.33 CELLS/uL | ABSOLUTE MONOCYTE [3]: 208 CELLS/uL | ABSOLUTE SEGMENTED NEUTROPHIL [3]: 1224.67 CELLS/uL | BASOPHIL [3]: 0% | EOSINOPHIL [3]: 0.67% | ERYTHROCYTE COUNT [3]: 5.43 x10E6/uL | HEMATOCRIT [3]: 33.53% | HEMOGLOBIN [3]: 13.07 G/DL | LEUKOCYTE COUNT [3]: 14.57 x10E3/uL | LYMPHOCYTE [3]: 89.67% | MEAN CORPUSCULAR HEMOGLOBIN [3]: 24.1 pg | MEAN CORPUSCULAR HEMOGLOBIN CONCENTRATION [3]: 38.97 G/DL | MONOCYTE [3]: 1.33% | NEUTROPHIL [3]: 8.33% | NUCLEATED RED BLOOD CELLS [3]: 0 /100WBC | PLATELET COUNT [3]: 1384.67 x10E3/uL | ALANINE AMINOTRANSFERASE [3]: 59.67 u/L | ALBUMIN [3]: 3.97 G/DL | ALKALINE PHOSPHATASE [3]: 505 u/L | ASPARTATE AMINOTRANSFERASE [3]: 74.67 u/L | BLOOD UREA NITROGEN [3]: 13.33 mg/dL | CARBON DIOXIDE [3]: 24.33 mmol/L | CHLORIDE [3]: 102 MEQ/L | CHOLESTEROL [3]: 70 mg/dL | CREATINE PHOSPHOKINASE [3]: 271 u/L | CREATININE [3]: 0.22 mg/dL | GLUCOSE [3]: 128.67 mg/dL | LACTATE DEHYDROGENASE [3]: 254.33 u/L | LIPASE [3]: 10.67 u/L | PHOSPHORUS [3]: 12.33 mg/dL | POTASSIUM [3]: 6.67 MEQ/L | SODIUM [3]: 142.25 MEQ/L | TOTAL BILIRUBIN [3]: 0.2 mg/dL | TOTAL PROTEIN [3]: 5.63 G/DL | URIC ACID [3]: 1.43 mg/dL
